Measured values from PMC10548512 (Chemical Science, 2023).

How the values were obtained:
[1] = system: H1N1pdm09 virus (A/Netherlands/602/2009)
H1 ectodomain = conditions: pH 7.5

Row | Compound | Infection inhibition in single-concentration screen [1] | IC50 ([1]; 1 h) | Competition with fluorescein-labelled S5 for binding to H1 protein (H1 ectodomain)
1 | CC[C@H](C)[C@@H]1NC(=O)[C@H](CS)NC(=O)[C@H](CO)NC(=O)[C@H](CCCNC(=N)N)NC(=O)[C@H](CCCNC(=N)N)NC(=O)[C@H](Cc2ccc(O)cc2)NC(=O)[C@H](CCC(N)=O)NC(=O)[C@H](Cc2ccccc2)NC(=O)[C@H](CC(N)=O)NC(=O)[C@H](CC(C)C)NC(=O)[C@@H]2CSC(=N2)c2cc(ccn2)C[C@@H](C(=O)NCC(N)=O)NC(=O)[C@H](CC(N)=O)NC(=O)[C@H](CC(C)C)NC(=O)[C@H]([C@@H](C)CC)NC(=O)[C@H](CC(N)=O)NC(=O)[C@H](CC(C)C)NC1=O [M3] | clear infection inhibition | 120 nM | compete
2 | H-CLNFQYRRSCILNILNBG-NH2 (disulfide) [M4] | did not show inhibition |  | 
3 | H-CYYFTHSIFNNLIVFHBG-NH2 (sidechain bridge or staple) [M8] | minimal to no activity |  | showed competition
